From US20120015961A1, “ISOTHIOUREA DERIVATIVES OR ISOUREA DERIVATIVES HAVING BACE1 INHIBITORY ACTIVITY” (SHIONOGI & CO., LTD., priority 2009, published 2012)

Tests used:
[1] = tested on: Neuroblastoma SH-SY5Y cells (SH/APPwt) with human wild-type β-APP excessively expressed; experiment: Measurement of β-amyloid (Aβ) production inhibitory effect in cell; format: cell-based; conditions: Homo sapiens, SH-SY5Y, 24 h, amount needed to inhibit Aβ production by 50%, 24 hours incubation, Amyloid β1-40 HTRF
Outline: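 SH-SY5Y cells overexpressing human wild-type β-APP exposed to compound for 24 h at 37 °C in 1% final DMSO. Secreted Aβ1-40 in supernatant measured by HTRF (overnight at 4 °C; 665/620 nm ratio). IC50 derived from at least six concentrations.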

[2] = tested on: Salmonella typhimurium (TA98 and TA100 strain); experiment: FAT test; format: cell-based; design: key: (−) means that mutagenicity is negative; (+) means positive; conditions: TA98 and TA100, with and without metabolic activation system
Description: Each 20 μL of freeze-stored Salmonella typhimurium (TA98 and TA100 strain) was inoculated in 10 mL of liquid nutrient medium (2.5% Oxoid nutrient broth No. 2), and the cultures were incubated at 37° C. under shaking for 10 hours. 9 mL of TA98 culture was centrifuged (2000×g, 10 minutes) to remove medium, and the bacteria was suspended in 9 mL of Micro F buffer (K2HPO4: 3.5 g/L, KH2PO4: 1 g/L, (NH4)2SO4: 1 g/L, trisodium citrate dehydrate: 0.25 g/L, MgSO4.7H2O: 0.1 g/L), and the suspension was added to 110 mL of Exposure medium (Micro F buffer containing Biotin: 8 μg/mL, histidine: 0.2 μg/mL, glucose: 8 mg/mL). 3.16 mL of TA100 culture was added to 120 mL of Exposure medium to prepare the test bacterial solution. […] The number of the yellow wells among the 48 total wells per dose was counted, and evaluated the mutagenicity by comparing with the negative control group. […]

Recombinant human BACE1 = target: T1, Recombinant human BACE1 (Homo sapiens, UniProt P56817); experiment: Assay of BACE1 inhibiting activity; format: biochemical; conditions: 50% inhibitory concentration against enzymatic activity, pH 5.0, 30° C., 3 hours
T1 construct: purchased R&D Systems
Outline: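 Recombinant human BACE1 (7.4 nM) incubated with 18 nM biotinylated Eu-cryptate peptide substrate in pH 5.0 sodium acetate, 3 h at 30 °C. Streptavidin-XL665 added, 1 h; TR-FRET 665/620 nm ratio gives activity, from which IC50 is calculated.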

T1 sequence (P56817 46-501): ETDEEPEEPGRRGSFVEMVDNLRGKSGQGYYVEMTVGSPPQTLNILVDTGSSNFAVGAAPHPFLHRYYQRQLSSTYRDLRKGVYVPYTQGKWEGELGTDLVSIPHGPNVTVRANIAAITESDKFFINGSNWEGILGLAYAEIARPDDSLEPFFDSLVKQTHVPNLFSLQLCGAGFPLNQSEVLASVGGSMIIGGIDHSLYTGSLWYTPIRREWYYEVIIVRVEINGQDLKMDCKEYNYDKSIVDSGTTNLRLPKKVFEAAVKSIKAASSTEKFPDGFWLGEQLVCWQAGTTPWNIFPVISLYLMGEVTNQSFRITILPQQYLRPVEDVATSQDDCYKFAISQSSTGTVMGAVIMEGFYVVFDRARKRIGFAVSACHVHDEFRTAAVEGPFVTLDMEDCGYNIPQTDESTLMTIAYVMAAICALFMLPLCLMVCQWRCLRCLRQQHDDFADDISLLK

SMILES: CO/C(N)=N\C1(c2cccc(NC(=O)c3ccc(C#N)cn3)c2)CC1 [Compound 44]
- IC50 [1]: ≤ 1000 nM
- mutagenicity [2]: (−)
- IC50 (Recombinant human BACE1): ≤ 1000 nM
